Laboratory results reported in BindingDB's records for PubMed 10087012 (Medical College of Georgia, 1999).

target: Sigma non-opioid intracellular receptor 1 (Homo sapiens, UniProt Q99720)
Sequence (Q99720 whole entry): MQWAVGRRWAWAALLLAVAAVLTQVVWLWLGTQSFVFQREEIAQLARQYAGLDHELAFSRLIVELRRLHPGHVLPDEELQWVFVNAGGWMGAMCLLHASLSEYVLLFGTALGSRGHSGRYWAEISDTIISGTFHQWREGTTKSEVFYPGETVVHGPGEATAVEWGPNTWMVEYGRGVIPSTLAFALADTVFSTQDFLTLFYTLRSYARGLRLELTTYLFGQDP

Compound	Ki
O=c1[nH]c2nccn2c2c1ncn2C1CC(O)C(COP(=O)(O)OP(=O)(O)OP(=O)(O)O)O1 (centres undefined) [CAS_85976-54-1]	42 nM
COc1ccc2c(c1)C13CCCCC1C(C2)N(C)CC3 (centres undefined) [Levomethorpan]	521 nM
CCN(CC)CCOCCOC(=O)C1(c2ccccc2)CCCC1 [SMR000326757]	10.4 nM
C#CCN(C)CCCOc1ccc(Cl)cc1Cl [US8633208, Clorgyline]	8.7 nM
